Measured values published in article PMC11356571, “The Comparative Metabolism of a Novel Hepatocellular Carcinoma Therapeutic Agent, 2,3-Diamino-N-(4-(benzo[d]thiazol-2-yl)phenyl)propanamide, in Human and Animal Hepatocytes” (Metabolites, 2024).

How the values were obtained:
Type in all cases: in vitro ADME
[1] = Metabolic stability in human hepatocytes; settings: cryopreserved hepatocytes
Description: (§1) Cryopreserved hepatocytes were carefully thawed in a 37 °C water bath for approximately 1 min, and transferred to a tube containing pre-warmed thawing medium. The supernatants were removed and the pellets were resuspended in KHB at a final cell density of 1 × 10^6 cells/mL, based on hemocytometer counting using trypan blue exclusion. A ETN101 solution was prepared by dissolving ETN101 in water at 4 mM and diluted by KHB at the concentration of 4 μM of ETN101. Sixty microliters each of hepatocyte suspensions and 4 μM of ETN101 were added in a 96-well plate and incubated for 0, 5, 15, 30, and 45 min at 37 °C in a CO2 incubator. All incubations were conducted in triplicates. Reactions were terminated by the addition of 120 μL of ice-cold acetonitrile and followed by vortex mixing. After centrifugation at 13,000 rpm for 8 min at 4 °C, 5 μL of internal standard (IS, camptothecin in acetonitrile at 780 ng/mL) was added to 60 μL of supernatant. A 2 μL aliquot was injected into the LC-MS/MS system. The reliability of the analysis was confirmed by incorporating three different levels of quality control samples at the beginning and end of each analytical batch. The disappearance rate (k) of ETN101 was calculated by determined peak area ratio of ETN101 to IS over incubation period. Subsequently, half-life (t1/2), intrinsic clearance (Clint), and intrinsic hepatic clearance (Clint,hep) of ETN101 in human and animal hepatocytes were calculated using the following equation [34]: t1/2(min)=ln2/−k(elimination slope) ClintμL/min/10^6 cells=ln2/t1/2×μL incubation/hepatocytes (10^6 cells) Clint,hepmL/min/kg=Clint/1000×A×10^6 cells/g liver×B g liver/kg body weight […]
(§2) For the metabolic stability assay, an LC-MS/MS system was employed, consisting of an Agilent 1260 series HPLC system (Agilent Technologies Inc., Santa Clara, CA, USA) coupled to an API 4000 mass spectrometer (AB SCIEX, Concord, Vaughan, ON, Canada) equipped with a turbo electrospray interface. […] ETN101 and IS were detected using multiple reaction monitoring (MRM) mode under positive electrospray ionization (ESI). […]

[2] = Metabolic stability in mouse hepatocytes; settings: cryopreserved hepatocytes
Description: as §1, §2

[3] = tested on: NAT2 in human liver cytosol; experiment: Human liver cytosol incubation with NAT2 inhibitor 1-aminobenzotriazole; settings: 30 min at 37 °C, M1 1 μM
Description: For the chemical inhibition assay, human liver cytosol was prepared in 0.05 M potassium phosphate buffer at a concentration of 1 mg/mL prior to use. A 1 μL of M1 (final concentration: 1 μM) solution was spiked in 223 μL of human liver cytosol preparations. One microliter each of caffeic acid and 1-aminobenzotriazole were added and incubated as NAT1 and NAT2 inhibitors, respectively. The final concentrations of the NAT inhibitors were 0, 100, and 1000 μM in each incubate. After 5 min of pre-warming of the incubates at 37 °C, the metabolic reaction was initiated by adding 25 μL of acetyl-CoA regenerating system to the incubates. The samples were incubated in triplicate for 0 min or 30 min at 37 °C. The reaction was stopped by adding 250 μL of ice-cold acetonitrile containing the IS (camptothecin, 500 ng/mL) and vortex-mixing. Following centrifugation at 13,000 rpm for 5 min at 4 °C, a 2 μL aliquot of the supernatant was injected into the LC-MS/MS system. The percentage of remaining M1 and the formation of M2 were evaluated to determine the involvement of the NAT isozyme in N-acetylation of M1.
For enzyme characterization, an Agilent 6460 triple quadrupole mass spectrometer coupled with a 1260 HPLC system (Agilent Technologies, Santa Clara, CA, USA) and a Kinetex Halo® C18 column (2.7 μm, 2.1 × 50 mm, Advanced Material Technology, Wilmington, DE, USA) were used for chromatographic separation. The mobile phases comprised 0.1% (v/v) formic acid in water (mobile phase A) and 0.1% formic acid (v/v) in acetonitrile (mobile phase B). The mobile phase flowed at a rate of 0.3 mL/min, and the gradient elution program proceeded as follows: starting with 10% B for 0.5 min, a linear increase to 90% B for 0.2 min, maintaining 90% B for 1.5 min, and then returning to initial conditions for 0.2 min. Subsequently, the column was reconditioned using 10% B for 2.6 min. The column and auto-sampler were maintained at 40 °C and 4 °C, respectively. ETN101, M1, and M2 were detected via MRM using ESI in the positive mode. […]

| half-life at 2 µM ([1]; 45 min incubation at 37 °C) [h] | hepatocyte CLint at 2 µM ([1]; 45 min incubation at 37 °C) [µL/min/1e6 cells] | CLint scaled at 2 µM ([1]; scaled from Clint) [mL/min/kg] | half-life at 2 µM ([2]; 45 min incubation at 37 °C) [h] | hepatocyte CLint at 2 µM ([2]; 45 min incubation at 37 °C) [µL/min/1e6 cells] | CLint scaled at 2 µM ([2]; scaled from Clint) [mL/min/kg] | SMILES | Percentage remaining of M1 ([3]; 1-aminobenzotriazole 0 μM) [%] | Percentage remaining of M1 ([3]; 1-aminobenzotriazole 100 μM) [%] | Percentage remaining of M1 ([3]; 1-aminobenzotriazole 1000 μM) [%] |
| --- | --- | --- | --- | --- | --- | --- | --- | --- | --- |
| 1.25 | 18.5 | 66.1 | 2.01 | 11.5 | 136 | NCC(N)C(=O)Nc1ccc(-c2nc3ccccc3s2)cc1 (stereo not drawn) [ETN101, 2,3-diamino-N-(4-(benzo[d]thiazol-2-yl)phenyl)propanamide] | – | – | – |
| – | – | – | – | – | – | Nc1ccc(-c2nc3ccccc3s2)cc1 [M1, 2-(4-aminophenyl)benzothiazole] | 86.7 | 89.4 | 90.9 |
